Measurements published in publication PMC4457528, “Identification of Novel Small Molecule Inhibitors of Oncogenic RET Kinase” (PLoS ONE, 2015).
Where two headings read alike, the source gives them in different places.

Tests used:
Assay in all cases: KinomeScan kinase panel, single concentration 10 µM
Assay type in all cases: binding
KinomeScan kinase panel [1] = biological target: T1, KinomeScan kinase panel (Homo sapiens, UniProt O14578); conditions: CIT, 10 µM
T1 construct: purchased DiscoveRx (KinomeScan)
T1 sequence (O14578 whole entry): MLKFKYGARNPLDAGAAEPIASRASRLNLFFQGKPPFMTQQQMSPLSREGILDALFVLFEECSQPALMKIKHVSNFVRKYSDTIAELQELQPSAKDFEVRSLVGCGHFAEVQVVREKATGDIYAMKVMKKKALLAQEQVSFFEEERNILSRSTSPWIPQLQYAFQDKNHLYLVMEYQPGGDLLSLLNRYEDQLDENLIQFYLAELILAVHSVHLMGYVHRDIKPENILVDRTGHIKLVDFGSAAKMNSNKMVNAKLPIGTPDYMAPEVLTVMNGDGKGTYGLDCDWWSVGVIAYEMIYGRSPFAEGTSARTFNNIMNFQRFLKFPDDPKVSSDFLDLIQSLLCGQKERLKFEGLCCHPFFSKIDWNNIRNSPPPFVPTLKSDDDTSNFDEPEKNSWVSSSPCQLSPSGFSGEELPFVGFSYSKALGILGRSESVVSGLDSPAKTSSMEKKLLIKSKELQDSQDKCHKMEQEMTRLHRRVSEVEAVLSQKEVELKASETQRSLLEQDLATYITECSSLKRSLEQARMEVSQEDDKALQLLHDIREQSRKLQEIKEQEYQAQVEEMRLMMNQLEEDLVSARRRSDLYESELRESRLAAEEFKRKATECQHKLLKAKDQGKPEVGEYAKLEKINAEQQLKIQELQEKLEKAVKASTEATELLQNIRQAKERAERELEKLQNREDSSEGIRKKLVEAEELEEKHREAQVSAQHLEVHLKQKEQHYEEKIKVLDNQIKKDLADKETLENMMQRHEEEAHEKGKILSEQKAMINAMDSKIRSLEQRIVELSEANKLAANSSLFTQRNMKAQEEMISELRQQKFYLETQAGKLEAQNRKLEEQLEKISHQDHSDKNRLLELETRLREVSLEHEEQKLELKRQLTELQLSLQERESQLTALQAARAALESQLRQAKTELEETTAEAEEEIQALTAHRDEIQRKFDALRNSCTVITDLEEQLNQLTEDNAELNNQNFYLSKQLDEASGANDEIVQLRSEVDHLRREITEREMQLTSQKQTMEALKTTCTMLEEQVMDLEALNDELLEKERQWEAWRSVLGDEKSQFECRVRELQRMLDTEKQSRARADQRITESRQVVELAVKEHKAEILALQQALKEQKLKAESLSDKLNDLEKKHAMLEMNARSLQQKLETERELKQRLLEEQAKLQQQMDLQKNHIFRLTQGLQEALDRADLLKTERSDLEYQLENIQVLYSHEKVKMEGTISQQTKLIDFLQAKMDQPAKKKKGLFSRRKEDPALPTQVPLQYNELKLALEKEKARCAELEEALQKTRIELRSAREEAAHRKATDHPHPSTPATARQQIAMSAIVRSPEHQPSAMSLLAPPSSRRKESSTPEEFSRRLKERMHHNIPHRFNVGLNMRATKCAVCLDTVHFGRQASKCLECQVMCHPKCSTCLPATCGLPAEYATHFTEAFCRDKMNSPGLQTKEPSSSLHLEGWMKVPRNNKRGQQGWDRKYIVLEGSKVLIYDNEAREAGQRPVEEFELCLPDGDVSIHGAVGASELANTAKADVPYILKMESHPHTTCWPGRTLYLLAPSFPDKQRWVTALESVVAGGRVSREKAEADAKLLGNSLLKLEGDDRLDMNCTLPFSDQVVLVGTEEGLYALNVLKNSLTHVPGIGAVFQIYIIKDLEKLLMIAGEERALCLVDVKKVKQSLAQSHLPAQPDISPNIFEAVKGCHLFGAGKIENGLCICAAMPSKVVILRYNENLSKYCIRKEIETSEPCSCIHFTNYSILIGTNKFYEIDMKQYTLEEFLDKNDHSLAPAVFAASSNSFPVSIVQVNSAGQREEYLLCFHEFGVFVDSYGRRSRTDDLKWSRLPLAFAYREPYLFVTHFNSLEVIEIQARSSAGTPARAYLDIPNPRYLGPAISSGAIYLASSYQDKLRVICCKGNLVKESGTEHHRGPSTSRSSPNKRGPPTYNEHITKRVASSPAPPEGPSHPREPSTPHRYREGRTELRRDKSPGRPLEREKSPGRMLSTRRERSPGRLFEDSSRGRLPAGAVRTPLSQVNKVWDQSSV

KinomeScan kinase panel [2] = biological target: T2, KinomeScan kinase panel (Homo sapiens, UniProt O15146); conditions: MUSK, 10 µM; read-out: score (%)
T2 construct: purchased DiscoveRx (KinomeScan)
T2 sequence (O15146 24-869): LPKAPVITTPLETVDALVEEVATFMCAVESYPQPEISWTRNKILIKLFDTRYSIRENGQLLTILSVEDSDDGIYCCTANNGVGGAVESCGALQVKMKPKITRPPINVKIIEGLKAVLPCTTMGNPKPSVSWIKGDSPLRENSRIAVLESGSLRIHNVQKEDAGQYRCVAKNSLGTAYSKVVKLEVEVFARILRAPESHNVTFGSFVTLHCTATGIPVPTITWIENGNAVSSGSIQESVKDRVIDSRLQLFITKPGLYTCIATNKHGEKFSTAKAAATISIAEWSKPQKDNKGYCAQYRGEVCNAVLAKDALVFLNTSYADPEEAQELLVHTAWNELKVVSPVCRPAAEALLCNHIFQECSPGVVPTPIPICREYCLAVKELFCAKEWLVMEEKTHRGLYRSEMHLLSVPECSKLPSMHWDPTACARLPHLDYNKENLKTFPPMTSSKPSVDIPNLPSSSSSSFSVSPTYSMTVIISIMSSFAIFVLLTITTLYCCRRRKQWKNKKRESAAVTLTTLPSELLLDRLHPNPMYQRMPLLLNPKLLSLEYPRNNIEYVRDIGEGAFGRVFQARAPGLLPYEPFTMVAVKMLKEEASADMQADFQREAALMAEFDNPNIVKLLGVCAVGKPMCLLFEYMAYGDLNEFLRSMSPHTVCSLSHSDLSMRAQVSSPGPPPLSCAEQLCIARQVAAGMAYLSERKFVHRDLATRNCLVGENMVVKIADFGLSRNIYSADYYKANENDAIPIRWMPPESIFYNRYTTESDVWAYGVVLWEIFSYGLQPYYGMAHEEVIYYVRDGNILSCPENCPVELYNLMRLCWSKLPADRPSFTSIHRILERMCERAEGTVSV

KinomeScan kinase panel [3] = biological target: T3, KinomeScan kinase panel (Homo sapiens, UniProt O96013); conditions: PAK4, 10 µM; read-out: score (%)
T3 construct: purchased DiscoveRx (KinomeScan)
T3 sequence (O96013 whole entry): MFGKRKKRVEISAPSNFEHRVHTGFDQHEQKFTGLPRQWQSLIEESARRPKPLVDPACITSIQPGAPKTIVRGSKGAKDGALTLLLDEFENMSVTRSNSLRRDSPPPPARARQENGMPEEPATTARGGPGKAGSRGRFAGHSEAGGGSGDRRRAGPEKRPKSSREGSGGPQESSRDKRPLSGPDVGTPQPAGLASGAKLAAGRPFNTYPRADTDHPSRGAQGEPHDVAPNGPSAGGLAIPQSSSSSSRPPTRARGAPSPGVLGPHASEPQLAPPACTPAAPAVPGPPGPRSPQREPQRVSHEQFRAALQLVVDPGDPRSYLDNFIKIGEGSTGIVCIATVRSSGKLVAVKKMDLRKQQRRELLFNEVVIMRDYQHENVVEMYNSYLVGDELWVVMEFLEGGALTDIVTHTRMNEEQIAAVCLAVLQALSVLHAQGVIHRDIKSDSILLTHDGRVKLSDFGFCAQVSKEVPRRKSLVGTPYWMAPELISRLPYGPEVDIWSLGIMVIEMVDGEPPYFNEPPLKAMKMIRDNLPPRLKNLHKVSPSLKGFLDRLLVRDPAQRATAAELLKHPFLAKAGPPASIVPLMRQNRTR

KinomeScan kinase panel [4] = biological target: T4, KinomeScan kinase panel (Homo sapiens, UniProt P08922); conditions: read-out: score (%)
T4 construct: purchased DiscoveRx (KinomeScan)

KinomeScan kinase panel [5] = biological target: T5, KinomeScan kinase panel (Homo sapiens, UniProt P0C264); conditions: read-out: score (%)
T5 construct: purchased DiscoveRx (KinomeScan)
T5 sequence (P0C264 1-359): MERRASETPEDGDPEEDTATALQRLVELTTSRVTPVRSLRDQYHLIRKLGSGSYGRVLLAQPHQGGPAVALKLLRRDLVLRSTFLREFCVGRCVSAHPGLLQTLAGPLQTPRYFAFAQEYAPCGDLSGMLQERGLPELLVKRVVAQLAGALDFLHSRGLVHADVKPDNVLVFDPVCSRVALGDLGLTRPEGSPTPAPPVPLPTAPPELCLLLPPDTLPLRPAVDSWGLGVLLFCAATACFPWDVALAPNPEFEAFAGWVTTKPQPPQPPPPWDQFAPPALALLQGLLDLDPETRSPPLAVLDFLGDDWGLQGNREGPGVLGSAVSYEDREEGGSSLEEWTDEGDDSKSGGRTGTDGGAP

KinomeScan kinase panel [6] = biological target: T6, KinomeScan kinase panel (Homo sapiens, UniProt P23458)
T6 construct: purchased DiscoveRx (KinomeScan)

KinomeScan kinase panel [7] = biological target: T7, KinomeScan kinase panel (Homo sapiens, UniProt Q13177); conditions: PAK2, 10 µM; read-out: score (%)
T7 construct: purchased DiscoveRx (KinomeScan)
T7 sequence (Q13177 whole entry): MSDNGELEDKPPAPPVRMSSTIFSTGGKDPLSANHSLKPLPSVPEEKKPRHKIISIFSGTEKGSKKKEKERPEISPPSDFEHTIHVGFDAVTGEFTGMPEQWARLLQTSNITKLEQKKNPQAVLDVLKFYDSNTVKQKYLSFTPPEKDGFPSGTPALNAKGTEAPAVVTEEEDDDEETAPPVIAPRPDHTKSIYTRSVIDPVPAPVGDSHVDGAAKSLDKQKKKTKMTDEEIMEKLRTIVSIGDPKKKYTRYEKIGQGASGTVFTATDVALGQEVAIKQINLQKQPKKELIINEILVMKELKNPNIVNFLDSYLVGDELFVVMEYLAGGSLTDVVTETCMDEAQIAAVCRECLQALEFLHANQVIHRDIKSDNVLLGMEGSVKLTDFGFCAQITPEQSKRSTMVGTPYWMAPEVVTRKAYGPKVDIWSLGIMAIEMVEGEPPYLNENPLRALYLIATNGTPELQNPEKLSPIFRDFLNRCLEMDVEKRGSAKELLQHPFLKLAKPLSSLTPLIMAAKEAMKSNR

KinomeScan kinase panel [8] = biological target: T8, KinomeScan kinase panel (Homo sapiens, UniProt Q16620); conditions: 10 µM, read-out: score (%)
T8 construct: purchased DiscoveRx (KinomeScan)
T8 sequence (Q16620 32-822): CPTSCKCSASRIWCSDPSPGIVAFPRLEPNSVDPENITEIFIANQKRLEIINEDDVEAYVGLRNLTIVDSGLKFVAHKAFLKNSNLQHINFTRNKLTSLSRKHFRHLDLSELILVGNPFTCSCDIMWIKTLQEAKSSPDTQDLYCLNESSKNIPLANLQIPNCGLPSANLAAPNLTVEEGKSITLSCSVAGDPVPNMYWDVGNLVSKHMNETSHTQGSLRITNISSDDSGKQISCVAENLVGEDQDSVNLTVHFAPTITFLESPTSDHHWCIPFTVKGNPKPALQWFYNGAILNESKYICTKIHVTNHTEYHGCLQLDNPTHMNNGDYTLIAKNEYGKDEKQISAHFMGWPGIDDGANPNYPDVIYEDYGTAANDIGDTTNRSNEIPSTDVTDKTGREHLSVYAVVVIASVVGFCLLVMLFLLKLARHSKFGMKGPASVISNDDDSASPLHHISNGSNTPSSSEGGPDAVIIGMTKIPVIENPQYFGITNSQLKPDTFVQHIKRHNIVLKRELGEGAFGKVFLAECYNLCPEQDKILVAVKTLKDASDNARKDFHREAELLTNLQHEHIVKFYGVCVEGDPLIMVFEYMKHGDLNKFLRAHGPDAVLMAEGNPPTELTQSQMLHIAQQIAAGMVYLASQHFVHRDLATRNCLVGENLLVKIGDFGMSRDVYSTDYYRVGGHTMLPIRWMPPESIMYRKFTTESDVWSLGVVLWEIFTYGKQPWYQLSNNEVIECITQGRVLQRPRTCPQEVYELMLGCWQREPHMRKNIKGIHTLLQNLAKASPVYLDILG

KinomeScan kinase panel [9] = biological target: T9, KinomeScan kinase panel (Homo sapiens, UniProt Q8N5S9); conditions: CAMKK1, 10 µM; read-out: score (%)
T9 construct: purchased DiscoveRx (KinomeScan)

KinomeScan kinase panel [10] = biological target: T10, KinomeScan kinase panel (Homo sapiens, UniProt Q96L34); conditions: MARK4, 10 µM
T10 construct: purchased DiscoveRx (KinomeScan)
T10 sequence (Q96L34 1-752): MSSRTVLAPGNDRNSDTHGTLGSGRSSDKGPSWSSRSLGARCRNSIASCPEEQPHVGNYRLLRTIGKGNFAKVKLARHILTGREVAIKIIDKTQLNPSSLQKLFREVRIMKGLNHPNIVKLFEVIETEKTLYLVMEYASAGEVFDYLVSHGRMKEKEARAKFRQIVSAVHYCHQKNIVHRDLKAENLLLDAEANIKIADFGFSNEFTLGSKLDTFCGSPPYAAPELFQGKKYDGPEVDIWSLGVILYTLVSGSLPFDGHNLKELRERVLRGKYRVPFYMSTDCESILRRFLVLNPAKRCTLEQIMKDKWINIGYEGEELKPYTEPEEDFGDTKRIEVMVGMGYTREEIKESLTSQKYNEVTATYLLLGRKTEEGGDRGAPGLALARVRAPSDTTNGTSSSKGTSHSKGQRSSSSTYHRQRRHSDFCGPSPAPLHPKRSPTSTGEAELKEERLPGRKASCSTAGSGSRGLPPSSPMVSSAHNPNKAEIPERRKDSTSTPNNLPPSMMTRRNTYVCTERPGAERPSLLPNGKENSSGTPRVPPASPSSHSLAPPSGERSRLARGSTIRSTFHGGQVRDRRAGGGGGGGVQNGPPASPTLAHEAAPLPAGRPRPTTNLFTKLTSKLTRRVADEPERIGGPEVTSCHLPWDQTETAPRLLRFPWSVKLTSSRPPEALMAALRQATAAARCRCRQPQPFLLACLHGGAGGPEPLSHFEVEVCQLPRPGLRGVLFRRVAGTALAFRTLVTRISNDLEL

KinomeScan kinase panel [11] = biological target: T11, KinomeScan kinase panel (Homo sapiens, UniProt Q9NYL2); conditions: kinase ZAK; 10 µM; read-out: score (%)
T11 construct: purchased DiscoveRx (KinomeScan)
T11 sequence (Q9NYL2 whole entry): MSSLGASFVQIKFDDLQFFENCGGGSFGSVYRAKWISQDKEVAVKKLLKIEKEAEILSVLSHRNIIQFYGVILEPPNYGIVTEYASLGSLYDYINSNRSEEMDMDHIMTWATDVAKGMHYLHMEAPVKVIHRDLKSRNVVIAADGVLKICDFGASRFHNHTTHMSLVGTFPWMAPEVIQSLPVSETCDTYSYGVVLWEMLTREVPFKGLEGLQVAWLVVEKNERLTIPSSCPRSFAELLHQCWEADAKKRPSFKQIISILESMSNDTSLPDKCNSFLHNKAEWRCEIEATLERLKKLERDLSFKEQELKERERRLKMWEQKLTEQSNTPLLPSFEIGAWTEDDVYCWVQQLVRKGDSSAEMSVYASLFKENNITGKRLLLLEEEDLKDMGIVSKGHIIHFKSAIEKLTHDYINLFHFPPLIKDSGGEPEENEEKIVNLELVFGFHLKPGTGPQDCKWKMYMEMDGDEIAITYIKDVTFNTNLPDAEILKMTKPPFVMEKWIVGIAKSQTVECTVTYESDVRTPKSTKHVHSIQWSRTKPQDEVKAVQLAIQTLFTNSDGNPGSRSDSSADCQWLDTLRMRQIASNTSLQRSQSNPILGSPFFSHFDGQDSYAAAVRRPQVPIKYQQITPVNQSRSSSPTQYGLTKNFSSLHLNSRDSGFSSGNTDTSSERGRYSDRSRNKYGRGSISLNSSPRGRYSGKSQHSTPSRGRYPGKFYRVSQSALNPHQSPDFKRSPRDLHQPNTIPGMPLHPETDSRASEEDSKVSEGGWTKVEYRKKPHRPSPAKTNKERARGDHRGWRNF

[12] = JAK1(JH1domain-catalytic), 10 µM

remaining binding at 10 µM (KinomeScan kinase panel [5]; SgK110, 10 µM)	score (%) (KinomeScan kinase panel [6]; JAK1(Kin.Dom.2), 10 µM)	remaining binding at 10 µM (KinomeScan kinase panel [8]; TRKB)	SMILES	score (%) (KinomeScan kinase panel [1])	remaining binding at 10 µM (KinomeScan kinase panel [2])	remaining binding at 10 µM (KinomeScan kinase panel [3])	remaining binding at 10 µM (KinomeScan kinase panel [4]; ROS1, 10 µM)	remaining binding at 10 µM (KinomeScan kinase panel [5]; kinase SgK110, 10 µM)	score (%) (KinomeScan kinase panel [6])	score (%) (KinomeScan kinase panel [6]; [12])	remaining binding at 10 µM (KinomeScan kinase panel [7])	remaining binding at 10 µM (KinomeScan kinase panel [8]; kinase TRKB)	remaining binding at 10 µM (KinomeScan kinase panel [9])	score (%) (KinomeScan kinase panel [10])	remaining binding at 10 µM (KinomeScan kinase panel [11])	score (%) (KinomeScan kinase panel [6]; JAK1(Kin.Dom.1), 10 µM)	remaining binding at 10 µM (KinomeScan kinase panel [4]; kinase ROS1, 10 µM)	score (%) (KinomeScan kinase panel [6]; JAK1(JH2domain-pseudokinase), 10 µM)
			CCN1CCN(Cc2ccc(NC(=O)c3ccc(C)c(NC(=O)c4cncc(-c5cccs5)c4)c3)cc2C(F)(F)F)CC1 [ALW-II-41-27]	14%	0.1%	> 30%	> 30%	> 30%	nb (Hits values higher than 30% were considered negative (no binding: nb))	14%	> 30%	4%	33%	nb (Hits values higher than 30% were considered negative (no binding: nb))	3%			
29%	11%	1.6%	CCN1CCN(Cc2ccc(NC(=O)c3ccc(C)c(/C=C/c4cnc5[nH]ccc5c4Cl)c3)cc2C(F)(F)F)CC1 [HG-6-63-01, (E)-3-(2-(4-chloro-1H-pyrrolo[2,3-b]pyridin-5-yl)vinyl)-N-(4-((4-ethylpiperazin-1-yl)methyl)-3-(trifluoromethyl)phenyl)-4-methylbenzamide]	0.2%	0.05%	> 30%	> 30%				> 30%		> 30%	25%	0.35%	nb (Hits values higher than 30% were considered negative (no binding: nb))		
			CCN1CCN(Cc2ccc(NC(=O)c3ccc(C)c(C#Cc4cccnc4)c3)cc2C(F)(F)F)CC1 [XMD15-44]	0%	0.05%	100%		100%		6.2%	84%	1.6%	> 30%	nb (Hits values higher than 30% were considered negative (no binding: nb))	0.4%		46%	nb (Hits values higher than 30% were considered negative (no binding: nb))
